# Test results reported in patent US20070149446A1, “Tamandarin analogs and fragments thereof and methods of making and using” (The Trustees of the University of Pennsylvania Center for …, priority 2003, published 2007).
# Starred links: 1 amine or outer side, 2 acyl side, 3 side chain; linkers in the order of their positions; H or OH if unused. Positions of bridges follow the written chain, without caps; N, C: chain ends. Non-standard residues stand in square brackets, D forms with d. Residues, ends and D or L forms follow the SMILES beside them. Hexanoyl(3S-OH,4R-NH2,5-Me) = CC(C)[C@@H](N[*:1])[C@@H](O)CC(=O)[*:2]; NMe2Nal = CN[C@@H](Cc1ccc2ccccc2c1)C(=O)O; NMeY = CN[C@@H](Cc1ccc(O)cc1)C(=O)O; dNMeL = CN[C@H](CC(C)C)C(=O)O; Hiv = CC(C)[C@H](O)C(=O)O; Lac = C[C@H](O)C(=O)O
# Key:
# DU145 = assay: SRB colorimetric cell growth inhibition assay, DU145; conditions: for TGI: DU145 cells, total growth inhibition, SRB, 48 hours exposure; for GI50 / CC50: Homo sapiens, DU-145, 48 h; for CC50: read-out: LC50
# Description: (§1) This form of assay employs 96 well cell culture microplates of […] diameter (Faircloth, 1988; Mosmann, 1983). Most of the cell lines are obtained from American Type Culture Collection (ATCC) derived from different human cancer types.
# (§2) Cells are maintained in RPMI 1640 10% FBS, supplemented with 0.1 g/l penicillin and 0.1 g/l streptomycin sulfate and then incubated at 37° C., 5% CO2 and 98% humidity. For the experiments, cells were harvested from subconfluent cultures using trypsin and resuspended in fresh medium before plating.
# (§3) Cells are seeded in 96 well microtiter plates, at 5×10^3 cells per well in aliquots of 195 μl medium, and they are allowed to attach to the plate surface by growing in drug free medium for 18 hours. Afterward, samples are added in aliquots of 5 μl in a ranging from 10 to 10-8 μg/ml, dissolved in DMSO/EtOH/PBS (0.5:0.5:99). After 48 hours exposure, the antitumor effect are measured by the SRB methodology: cells are fixed by adding 50 μl of cold 50% (wt/vol) trichloroacetic acid (TCA) and incubated for 60 minutes at 4° C.
# (§4) Plates are washed with deionised water and dried. One hundred μl of SRB solution (0.4% wt/vol in 1% acetic acid) is added to each microtiter well and incubated for 10 minutes at room temperature. Unbound SRB is removed by washing with 1% acetic acid. Plates are air dried and bound stain is solubilized with Tris buffer. Optical densities are read on a automated spectrophotometric plate reader at a single wavelength of 490 nm.
# (§5) The values for mean+/−SD of data from triplicate wells are calculated.
# (§6) Some parameters for cellular responses can be calculated: GI=growth inhibition, TGI=total growth inhibition (cytostatic effect) and LC=cell killing (cytotoxic effect).
# LN-caP = assay: SRB colorimetric cell growth inhibition assay, LN-caP; conditions: for GI50 / CC50: Homo sapiens, LNCaP, 48 h; for CC50: read-out: LC50; for TGI: LN-caP cells, total growth inhibition, SRB, 48 hours exposure
# Description: as §1, §2, §3, §4, §5, §6
# IGROV = assay: SRB colorimetric cell growth inhibition assay, IGROV; conditions: for GI50 / CC50: Homo sapiens, IGROV, 48 h; for CC50: read-out: LC50; for TGI: IGROV cells, total growth inhibition, SRB, 48 hours exposure
# Description: as §1, §2, §3, §4, §5, §6
# IGROV-ET = assay: SRB colorimetric cell growth inhibition assay, IGROV-ET; conditions: for GI50 / CC50: Homo sapiens, 48 h; for CC50: read-out: LC50; for TGI: IGROV-ET cells, total growth inhibition, SRB, 48 hours exposure
# Description: as §1, §2, §3, §4, §5, §6
# SK-BR3 = assay: SRB colorimetric cell growth inhibition assay, SK-BR3; conditions: for GI50 / CC50: Homo sapiens, SK-BR-3, 48 h; for CC50: read-out: LC50; for TGI: SK-BR3 cells, total growth inhibition, SRB, 48 hours exposure
# Description: as §1, §2, §3, §4, §5, §6
# SK-MEL-28 = assay: SRB colorimetric cell growth inhibition assay, SK-MEL-28; conditions: for GI50 / CC50: Homo sapiens, SK-MEL-28, 48 h; for CC50: read-out: LC50; for TGI: SK-MEL-28 cells, total growth inhibition, SRB, 48 hours exposure
# Description: as §1, §2, §3, §4, §5, §6
# A549 = assay: SRB colorimetric cell growth inhibition assay, A549; conditions: for TGI: A549 cells, total growth inhibition, SRB, 48 hours exposure; for GI50 / CC50: Homo sapiens, A549, 48 h; for CC50: read-out: LC50
# Description: as §1, §2, §3, §4, §5, §6
# K562 = assay: SRB colorimetric cell growth inhibition assay, K562; conditions: for GI50 / CC50: Homo sapiens, K562, 48 h; for CC50: read-out: LC50; for TGI: K562 cells, total growth inhibition, SRB, 48 hours exposure
# Description: as §1, §2, §3, §4, §5, §6
# PANC1 = assay: SRB colorimetric cell growth inhibition assay, PANC1; conditions: for GI50 / CC50: Homo sapiens, PANC-1, 48 h; for CC50: read-out: LC50; for TGI: PANC1 cells, total growth inhibition, SRB, 48 hours exposure
# Description: as §1, §2, §3, §4, §5, §6
# HT29 = assay: SRB colorimetric cell growth inhibition assay, HT29; conditions: for TGI: HT29 cells, total growth inhibition, SRB, 48 hours exposure; for GI50 / CC50: Homo sapiens, HT-29, 48 h; for CC50: read-out: LC50
# Description: as §1, §2, §3, §4, §5, §6
# LOVO = assay: SRB colorimetric cell growth inhibition assay, LOVO; conditions: for GI50 / CC50: Homo sapiens, LoVo, 48 h; for CC50: read-out: LC50; for TGI: LOVO cells, total growth inhibition, SRB, 48 hours exposure
# Description: as §1, §2, §3, §4, §5, §6
# LOVO-DOX = assay: SRB colorimetric cell growth inhibition assay, LOVO-DOX; conditions: for GI50 / CC50: Homo sapiens, 48 h; for CC50: read-out: LC50; for TGI: LOVO-DOX cells, total growth inhibition, SRB, 48 hours exposure
# Description: as §1, §2, §3, §4, §5, §6
# HELA = assay: SRB colorimetric cell growth inhibition assay, HELA; conditions: for TGI: HELA cells, total growth inhibition, SRB, 48 hours exposure; for GI50 / CC50: Homo sapiens, HeLa, 48 h; for CC50: read-out: LC50
# Description: as §1, §2, §3, §4, §5, §6
# HELA-APL = assay: SRB colorimetric cell growth inhibition assay, HELA-APL; conditions: for TGI: HELA-APL cells, total growth inhibition, SRB, 48 hours exposure; for GI50 / CC50: Homo sapiens, 48 h; for CC50: read-out: LC50
# Description: as §1, §2, §3, §4, §5, §6
compound,measurement,setting,value
"COc1ccc(C[C@H]2C(=O)O[C@H](C)[C@H](NC(=O)[C@@H](CC(C)C)N(C)C(=O)[C@@H]3CCCN3C(=O)[C@H](C)O)C(=O)N[C@H](C(C)C)[C@@H](O)CC(=O)O[C@@H](C(C)C)C(=O)N[C@@H](CC(C)C)C(=O)N[C@@H](C)C(=O)N2C)cc1 [Compound 75, [N-Ala^4]-Tamandarin B] (H-[Lac]P[dNMeL]T[Hexanoyl(3S-OH,4R-NH2,5-Me)][Hiv]LA[NMeY](Me); ester 4-C)",TGI,DU145,4.95E−06 Molar
same,GI50,DU145,1810 nM
same,CC50,DU145,≥ 9840 nM
same,GI50,LN-caP,548 nM
same,CC50,LN-caP,≥ 9840 nM
same,TGI,LN-caP,2.97E−06 Molar
same,GI50,IGROV,1990 nM
same,CC50,IGROV,≥ 9840 nM
same,TGI,IGROV,5.29E−06 Molar
same,GI50,IGROV-ET,6860 nM
same,CC50,IGROV-ET,≥ 9840 nM
same,TGI,IGROV-ET,9.84E−06 Molar
same,GI50,SK-BR3,789 nM
same,CC50,SK-BR3,≥ 9840 nM
same,TGI,SK-BR3,3.39E−06 Molar
same,GI50,SK-MEL-28,1500 nM
same,CC50,SK-MEL-28,8000 nM
same,TGI,SK-MEL-28,3.46E−06 Molar
same,TGI,A549,9.84E−06 Molar
same,GI50,A549,5850 nM
same,CC50,A549,≥ 9840 nM
same,GI50,K562,5870 nM
same,CC50,K562,≥ 9840 nM
same,TGI,K562,9.46E−06 Molar
same,GI50,PANC1,3750 nM
same,CC50,PANC1,≥ 9840 nM
same,TGI,PANC1,9.84E−06 Molar
same,TGI,HT29,9.84E−06 Molar
same,GI50,HT29,4220 nM
same,CC50,HT29,≥ 9840 nM
same,GI50,LOVO,3550 nM
same,CC50,LOVO,≥ 9840 nM
same,TGI,LOVO,9.84E−06 Molar
same,GI50,LOVO-DOX,≥ 9840 nM
same,CC50,LOVO-DOX,≥ 9840 nM
same,TGI,LOVO-DOX,9.84E−06 Molar
same,TGI,HELA,3.60E−06 Molar
same,GI50,HELA,1180 nM
same,CC50,HELA,≥ 9840 nM
same,TGI,HELA-APL,9.84E−06 Molar
same,GI50,HELA-APL,≥ 9840 nM
same,CC50,HELA-APL,≥ 9840 nM
"CC(C)C[C@@H]1NC(=O)[C@H](C(C)C)OC(=O)C[C@H](O)[C@@H](C(C)C)NC(=O)[C@@H](NC(=O)[C@@H](CC(C)C)N(C)C(=O)[C@@H]2CCCN2C(=O)[C@H](C)O)[C@@H](C)OC(=O)[C@H](Cc2ccc3ccccc3c2)N(C)C(=O)[C@@H]2CCCN2C1=O [Compound 93, [2-Naphthylala^5]-Tamandarin B] (H-[Lac]P[dNMeL]T[Hexanoyl(3S-OH,4R-NH2,5-Me)][Hiv]LP[NMe2Nal]; ester 4-C)",TGI,DU145,4.39E−09 Molar
same,GI50,DU145,2.17 nM
same,CC50,DU145,8.83 nM
same,GI50,LN-caP,1.98 nM
same,CC50,LN-caP,9.7 nM
same,TGI,LN-caP,4.33E−09 Molar
same,GI50,IGROV,2.09 nM
same,CC50,IGROV,666 nM
same,TGI,IGROV,1.28E−08 Molar
same,GI50,IGROV-ET,159 nM
same,CC50,IGROV-ET,2810 nM
same,TGI,IGROV-ET,6.54E−07 Molar
same,GI50,SK-BR3,1.83 nM
same,CC50,SK-BR3,4650 nM
same,TGI,SK-BR3,1.89E−08 Molar
same,GI50,SK-MEL-28,4.14 nM
same,CC50,SK-MEL-28,87.9 nM
same,TGI,SK-MEL-28,1.52E−08 Molar
same,TGI,A549,4.86E−08 Molar
same,GI50,A549,6.96 nM
same,CC50,A549,595 nM
same,GI50,K562,20 nM
same,CC50,K562,198 nM
same,TGI,K562,4.73E−08 Molar
same,GI50,PANC1,6.24 nM
same,CC50,PANC1,9410 nM
same,TGI,PANC1,9.00E−08 Molar
same,TGI,HT29,6.98E−08 Molar
same,GI50,HT29,4.6 nM
same,CC50,HT29,5580 nM
same,GI50,LOVO,6.84 nM
same,CC50,LOVO,2490 nM
same,TGI,LOVO,4.27E−08 Molar
same,GI50,LOVO-DOX,429 nM
same,CC50,LOVO-DOX,9410 nM
same,TGI,LOVO-DOX,2.33E−06 Molar
same,TGI,HELA,9.79E−09 Molar
same,GI50,HELA,2.81 nM
same,CC50,HELA,54.9 nM
same,TGI,HELA-APL,1.68E−07 Molar
same,GI50,HELA-APL,36.4 nM
same,CC50,HELA-APL,2280 nM
